In one data set the test system is NTCP. Put plainly: Expression level of NTCP in rat liver (UHPLC-MS/MS signature peptide) and correlation with AUC. The class given is in vivo. To be noted: before administration of AE-PM. The text has this:
(§1) The detection method for UGT1A1 and nine other transporter proteins in the liver was comprehensively investigated in our study (35).
An Agilent 1290 Infinity series UHPLC system coupled to an Agilent 6460 series MS/MS system (Agilent Technologies, Santa Clara, CA, United States) was applied to quantitate the signature peptides in ESI positive ionization mode. […] The sequence of characteristic peptides that corresponded to UGT1A1 and the other nine transporter proteins were based on our previous experiments and listed in Table 3 .
(§2) Total membrane protein was isolated (in triplicate) from liver tissue samples according to the Native Membrane Protein Extraction Kit protocol. Subsequently, protein concentrations were determined by the BCA Protein Assay Kit. 10 µl of 5 mg/ml (or lower concentration) of a hepatocyte membrane protein incubated with 20 µl of dithiothreitol (100 mM) and 50 µl of ammonium bicarbonate buffer (50 mM, pH 7.8). After incubation at 95°C for 5 min, 20 µl of iodoacetamide (20 mM) was added to the mixture, followed by incubation at 37°C for 20 min in the dark. To concentrate the samples, ice-cold methanol (0.5 ml), chloroform (0.2 ml), and water (0.2 ml) were added. […]

For another data set, the system named is UGT1A1. The data set can be described thus: Expression level of UGT1A1 in rat liver (UHPLC-MS/MS signature peptide) and correlation with AUC. The class given is in vivo. The note with it: before administration of AE-PM. The protocol: as §1
(§3) The sequence of characteristic peptides that corresponded to UGT1A1 and the other nine transporter proteins were based on our previous experiments and listed in Table 3 .
as §2, with “added. After centrifugation at 4°C for 5 min at 16,000 g, the supernatant was discarded and the pellet was washed once with ice-cold methanol (0.25 ml) and resuspended with 40 µl of reconstitution solution (equal volume of 3% sodium deoxycholate (w/v) and 5 mM ammonium bicarbonate buffer). Finally, the protein sample was digested with 10 µl of trypsin. The protein-to-trypsin ratio was 25:1 (w/w).” for “added.”

In the next data set the test system is OATP1A4. Put plainly: Expression level of OATP1A4 in rat liver (UHPLC-MS/MS signature peptide) and correlation with AUC. Type of data set: in vivo. The note with it: before administration of AE-PM. How it is done: as §1, §3
as §2, with “added. After centrifugation at 4°C for 5 min at 16,000 g, the supernatant was discarded and the pellet was washed once with ice-cold methanol (0.25 ml) and resuspended with 40 µl of reconstitution solution (equal volume of 3% sodium deoxycholate (w/v) and 5 mM ammonium bicarbonate buffer). Finally, the protein sample was digested with 10 µl of trypsin. The protein-to-trypsin ratio was 25:1 (w/w).” for “added.”

The next data set has as its system MDR1. The data set can be described thus: Expression level of MDR1 in rat liver (UHPLC-MS/MS signature peptide) and correlation with AUC. Type of data set: in vivo. To be noted: before administration of AE-PM. How it is done: as §1, §3
as §2, with “added. After centrifugation at 4°C for 5 min at 16,000 g, the supernatant was discarded and the pellet was washed once with ice-cold methanol (0.25 ml) and resuspended with 40 µl of reconstitution solution (equal volume of 3% sodium deoxycholate (w/v) and 5 mM ammonium bicarbonate buffer). Finally, the protein sample was digested with 10 µl of trypsin. The protein-to-trypsin ratio was 25:1 (w/w).” for “added.”

The nature of data set [1]: Serum biochemistry in ANIT and CCl4 liver injury model rats. Type of data set: in vivo, rat. The note with it: 24 h after model induction; before AE-PM.
Experimental: Additionally, group 3 represented the CCl4-induced hepatocytes injury model, which was treated with pure CCl4 (5 ml/kg, s. c.) on day 0, 50% CCl4 (diluted in olive oil) (3 ml/kg, s. c.) on day 3, and 20% CCl4 (diluted in olive oil) (3 ml/kg, s. c.) on day 6. After 24 h, five rats selection for serum and liver collection from each of the three groups. Blood samples were collected in a coagulation tube, and were centrifuged at 4°C for 15 min (4,000 rpm), The resultant serum was used for the ALT, AST, TBIL, DBIL, TBA and ALP assays. Liver samples were dissected and stored at −80°C for further analysis, whereas the central part of the right large lobe of the liver was used for histological examination.
The subject of the next data set is OCT1. The data set can be described thus: Expression level of OCT1 in rat liver (UHPLC-MS/MS signature peptide) and correlation with AUC. The class given is in vivo. The note with it: before administration of AE-PM. The protocol:
as §1, §3
as §2, with “added. After centrifugation at 4°C for 5 min at 16,000 g, the supernatant was discarded and the pellet was washed once with ice-cold methanol (0.25 ml) and resuspended with 40 µl of reconstitution solution (equal volume of 3% sodium deoxycholate (w/v) and 5 mM ammonium bicarbonate buffer). Finally, the protein sample was digested with 10 µl of trypsin. The protein-to-trypsin ratio was 25:1 (w/w).” for “added.”

The subject of the next data set is BSEP. The data set can be described thus: Expression level of BSEP in rat liver (UHPLC-MS/MS signature peptide) and correlation with AUC. To be noted: before administration of AE-PM. Type of data set: in vivo. How it is done:
as §1, §3
as §2, with “added. After centrifugation at 4°C for 5 min at 16,000 g, the supernatant was discarded and the pellet was washed once with ice-cold methanol (0.25 ml) and resuspended with 40 µl of reconstitution solution (equal volume of 3% sodium deoxycholate (w/v) and 5 mM ammonium bicarbonate buffer). Finally, the protein sample was digested with 10 µl of trypsin. The protein-to-trypsin ratio was 25:1 (w/w).” for “added.”

Data set [2] is described as follows: Pharmacokinetics of AE-PM components and their phase II metabolites in rat plasma after single oral administration (UHPLC-MS/MS, with and without sulfatase hydrolysis). The note with it: plasma; for CL/F: CLz/F; for MRT inf: MRT (0-∞); for Vd/F: Vz/F.
Experimental: (§4) To explore the pharmacokinetic properties of PM following intragastric administration in rats, a rapid and sensitive method involving the use of UHPLC-MS/MS (Agilent 6460 series, Agilent Technologies, Santa Clara, CA, United States) was developed and validated for the simultaneous quantification of nine active components in rat plasma. The quantification was conducted in ESI negative ionization mode, and mass spectrometry conditions were set up as follows: capillary voltage of 3500 V; gas flow at 12 L/min; nebulizer of 40 psi; the gas temperature of 350°C; and delta EMV (−) of 400. A 10 µl extraction sample was injected into the column (Agilent SB-C18 column, 2.1 mm × 50 mm, 1.8 mm) and eluted at 0.4 ml/min with a gradient elution of water (with 0.1% v/v formic acid) (A) and acetonitrile (B) (0–1.5 min, 20–30% B; 1.5–3.5 min, 30–50% B; 3.five to four min, 50–55%B; 4–6.5 min, 55–85% B; 6.5–6.6 min, 85–20% B and re-equilibration for 3 min).
(§5) A 50 µl aliquot of blood plasma sample was placed in a centrifuge tube with 50 µl of puerarin (internal standard, IS) solution (1,000 ng/ml), followed by 150 µl methanol, which was mixed for 5 min. Then, the mixture was centrifuged for 10 min at 15,000 rpm (4°C), the supernatant was transferred to a clean centrifuge tube and dried with nitrogen gas at room temperature. The residue was resuspended in 100 µl of methanol, then centrifuged at 15,000 rpm (4°C, 10 min), and 10 µl of the supernatant was analyzed by UHPLC-MS/MS.
(§6) Additional plasma samples (50 µl) were enzymatically hydrolyzed with 50 µl of enzyme solution (65.86 mg of sulfatase, dissolved in 2 ml of sodium acetate buffer, pH 5.0) for phase II metabolite quantification, in accordance with our previous study ([Ding et al., 2012]; [Yi et al., 2018]). After being vortex mixed for 5 min, the mixture was incubated at 37°C for 30 min and returned to room temperature. Subsequently, the samples were processed as described above.
(§7) The remaining 21 rats of the three groups were treated with a single oral dose of AE-PM (50.4 g PM/kg). […] Blood was collected in heparinized tubes at 5, 15, 30, 45, 60, 120, 240, 360, 480, 720, 1,440, 2,880, and 4,320 min after administration. The blood samples were centrifuged at 5,000 rpm (4°C) for 7 min, and the supernatant plasma was harvested.
(§8) All data were presented as mean ± standard deviation (SD). A one-way analysis of variance (ANOVA) was used to compare the data between three groups. The differences were considered to be statistically significant when p < 0.05 and highly significant when the p-value was <0.01 or p < 0.001. Spearman rank correlation coefficient, calculated by bivariate correlation analysis was used to evaluate the correlation between AUC values and expression levels of metabolic enzyme and transporters. All statistical analyses were performed with the SPSS Statistics system (SPSS vision 21.0). Pharmacokinetic data analyses were performed using DAS 2.1.1 software (Mathematical Pharmacology Professional Committee of China, Shanghai, China).
For data set [3] the following is noted: rat, in vivo, po.
Experimental: as §4, §5, §6, §7, §8
Where [4] appears, read: CCl4 group rats, oral AE-PM 50 g/kg, n = 6.
The mark [5] stands for this setting: rat, po, 50 g/kg, ANIT group rats, oral AE-PM 50 g/kg, n = 6.
Where [6] appears, read: rat, po, 50 g/kg, CCl4 group rats, oral AE-PM 50 g/kg, n = 6.
Setting [7] is: rat, po, 50 g/kg, Normal group rats, oral AE-PM 50 g/kg, n = 6.

Consider 3 compounds from paper PMC8245786, “Comparative Studies on Multi-Component Pharmacokinetics of Polygonum multiflorum Thunb Extract After Oral Administration in Different Rat Models” (Frontiers in Pharmacology, 2021).

Where only a bound is given, the exact number is not on record here.

On to `S=C=Nc1cccc2ccccc12` [ANIT, alpha-naphthylisothiocyanate], for which the “Reduction of NTCP expression level compared with the control group” value in the data set with NTCP is on record as 38.02%.

On to `ClC(Cl)(Cl)Cl` [CCl4, Carbon tetrachloride], for which the “Reduction of NTCP expression level compared with the control group” value in the data set on NTCP is 15.75%. In the data set with UGT1A1, the “Reduction of UGT1A1 expression level compared with the control group” value is given as 31.18%. Moreover, in the data set with OATP1A4, the “Reduction of OATP1A4 expression level compared with the control group” value was determined as 46.11%. Also, in the data set with MDR1, the “Reduction of MDR1 expression level compared with the control group” value stood at 34.15%. Moreover, in data set [1], the “Increase of serum ALT compared with the control group” value came to 4.45 folds and the “Increase of serum AST compared with the control group” value came out at 2.68 folds. In the data set with OCT1, the “Reduction of OCT1 expression level compared with the control group” value was found to be 22.30%. In the data set with BSEP, the “Reduction of BSEP expression level compared with the control group” value was 26.92%.

One may read the Tmax as the time at which the peak concentration occurs. In general, AUC(0-inf) refers to the area under the concentration-time curve extrapolated to infinity. For orientation: CL/F means clearance divided by bioavailability, as obtained after extravascular dosing. The Cmax is the maximum level reached in the sampled fluid or tissue. For orientation: MRT inf means the average time that molecules of a dose stay in the body. In general, Vd/F refers to the apparent distribution volume after extravascular dosing. The half-life is how long it takes for the measured level to halve. `Cc1cc(O)c2c(c1)C(=O)c1cc(O)cc(O)c1C2=O` [Emodin, emodin]: in [2] (setting [4]), the Tmax came to 15 ± 3.95 min and the t1/2z is 3.654 ± 0.267 h. In addition, the t1/2z in data set [2] (Normal group rats, oral AE-PM 50 g/kg, n = 6) worked out at 3.681 ± 1.075 h. In addition, in data set [2] (setting [5]), the AUC(0-inf) was found to be 1500 ng·h/mL, the CL/F is 223 mL/min/kg, the Cmax turned out to be 607 ± 29.9 ng/mL and the mean residence time MRT inf came to 22.8 ± 5.28 h. Moreover, the Vd/F in [2] (setting [5]) is 75.5 ± 8.86 L/kg. In data set [2] (setting [6]), the AUC(0-inf) came out at 5970 ng·h/mL, the apparent clearance CL/F was 55.9 mL/min/kg, the maximum concentration (Cmax) came out at 6430 ng/mL and the MRT inf was 1.23 ± 0.681 h. Further, in data set [2] (setting [6]), the Vd/F came to 68.1 ± 6.03 L/kg. Besides, in data set [2] (setting [7]), the area under the curve AUC(0-inf) was determined as 3400 ng·h/mL, the CL/F is 98.1 mL/min/kg, the highest concentration (Cmax) was 4100 ng/mL and the MRT inf was found to be 6.09 ± 1.83 h. The Vd/F in data set [2] (setting [7]) is 31.3 ± 3.25 L/kg. Moreover, in data set [2] (rat, po, 50 g/kg, Tmax, Normal group rats, oral AE-PM 50 g/kg, n = 6), the time to peak (Tmax) stood at 10 ± 3.54 min. The half-life in data set [2] (rat, po, 50 g/kg, t1/2z, ANIT group rats, oral AE-PM 50 g/kg, n = 6) was 235 ± 49.3 min. Besides, the Tmax in data set [2] (rat, po, 50.4 g PM/kg, Tmax, different groups (normal, ANIT, CCl4), oral AE-PM) is below 30 min. For the same compound, in [2] (rats, oral AE-PM), the “Conversion into phase II metabolites” value is “partially converted”. Also, in [3], the “Decrease of AUC (0-∞) compared with the normal group” value is on record as 55.98%, the “Decrease of Cmax compared with the normal group” value was 85.18%, the “Increase of AUC (0-∞) compared with the normal group” value is recorded as 75.69% and the “Increase of Cmax compared with the normal group” value is 57.02%.
